Here are results for three compounds from ChEMBL document CHEMBL3627608, “Crystal structures of human RIP2 kinase catalytic domain complexed with ATP-competitive inhibitors: Foundations for understanding inhibitor selectivity” (Bioorg Med Chem, 2015).

Assay [1] addresses Ribosomal protein S6 kinase alpha-4 (Homo sapiens) (UniProt O75676). Description: Inhibition of MSK2 (unknown origin) at 10 uM after 120 mins P33 radiolabeled kinase activity assay.
The target in assay [2] is G protein-coupled receptor kinase 4 (Homo sapiens) (UniProt P32298). The assay is described as follows: Inhibition of GRK4 (unknown origin) at 10 uM after 120 mins P33 radiolabeled kinase activity assay.
G protein-coupled receptor kinase 4 (Homo sapiens), sequence (P32298 whole entry, looked up): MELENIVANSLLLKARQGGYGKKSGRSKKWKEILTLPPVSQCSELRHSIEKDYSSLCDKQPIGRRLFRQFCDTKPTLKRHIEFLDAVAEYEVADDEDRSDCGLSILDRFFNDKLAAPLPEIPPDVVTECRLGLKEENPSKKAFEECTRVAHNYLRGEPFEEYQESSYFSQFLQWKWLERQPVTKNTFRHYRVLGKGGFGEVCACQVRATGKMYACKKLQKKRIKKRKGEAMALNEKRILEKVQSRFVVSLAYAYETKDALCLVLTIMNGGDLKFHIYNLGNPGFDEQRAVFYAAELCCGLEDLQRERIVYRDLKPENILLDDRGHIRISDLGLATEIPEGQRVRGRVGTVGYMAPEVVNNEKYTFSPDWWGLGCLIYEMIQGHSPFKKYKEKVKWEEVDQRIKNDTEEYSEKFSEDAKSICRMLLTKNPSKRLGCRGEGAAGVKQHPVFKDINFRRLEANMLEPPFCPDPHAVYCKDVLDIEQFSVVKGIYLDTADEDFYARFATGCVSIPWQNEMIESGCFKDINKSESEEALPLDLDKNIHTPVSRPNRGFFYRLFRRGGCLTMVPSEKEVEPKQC
For assay [3], the target named is Dual specificity protein kinase CLK1 (Homo sapiens) (UniProt P49759). The assay is described as follows: Inhibition of CLK1 (unknown origin) at 10 uM after 120 mins P33 radiolabeled kinase activity assay.
Dual specificity protein kinase CLK1 (Homo sapiens), sequence (P49759 whole entry, looked up): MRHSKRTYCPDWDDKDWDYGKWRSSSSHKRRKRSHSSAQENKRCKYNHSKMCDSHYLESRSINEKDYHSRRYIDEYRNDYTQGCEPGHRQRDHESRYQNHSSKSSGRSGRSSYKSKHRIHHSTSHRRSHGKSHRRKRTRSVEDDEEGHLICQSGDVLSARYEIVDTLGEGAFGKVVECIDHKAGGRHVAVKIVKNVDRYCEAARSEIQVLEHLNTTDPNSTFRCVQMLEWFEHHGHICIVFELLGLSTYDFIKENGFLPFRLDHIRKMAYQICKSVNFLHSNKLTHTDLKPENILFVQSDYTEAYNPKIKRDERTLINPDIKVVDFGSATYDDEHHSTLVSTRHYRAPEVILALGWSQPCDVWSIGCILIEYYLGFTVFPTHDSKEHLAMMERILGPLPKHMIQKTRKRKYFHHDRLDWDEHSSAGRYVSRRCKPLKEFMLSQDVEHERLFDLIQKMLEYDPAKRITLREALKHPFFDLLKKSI
For assay [4], the target named is Ribosomal protein S6 kinase alpha-6 (Homo sapiens) (UniProt Q9UK32). The assay is described as follows: Inhibition of RSK4 (unknown origin) at 10 uM after 120 mins P33 radiolabeled kinase activity assay.
Assay [5] has as its target T1, cAMP-dependent protein kinase catalytic subunit PRKX (Homo sapiens) (UniProt P51817).
T1 sequence (whole entry): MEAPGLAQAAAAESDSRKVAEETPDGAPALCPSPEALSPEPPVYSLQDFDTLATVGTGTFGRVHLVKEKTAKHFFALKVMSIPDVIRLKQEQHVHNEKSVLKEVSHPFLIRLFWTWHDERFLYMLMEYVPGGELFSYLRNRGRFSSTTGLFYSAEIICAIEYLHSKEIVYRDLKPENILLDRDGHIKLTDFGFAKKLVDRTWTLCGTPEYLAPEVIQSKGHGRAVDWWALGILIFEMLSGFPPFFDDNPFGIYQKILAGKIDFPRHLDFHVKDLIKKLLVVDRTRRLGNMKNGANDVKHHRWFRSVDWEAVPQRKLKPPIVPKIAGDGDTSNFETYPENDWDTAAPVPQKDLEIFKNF
Description: Inhibition of PRKX (unknown origin) at 10 uM after 120 mins P33 radiolabeled kinase activity assay.

Assay [6] deals with Glycogen synthase kinase-3 alpha (Homo sapiens) (UniProt P49840). Description: Inhibition of GSK3alpha (unknown origin) at 10 uM after 120 mins P33 radiolabeled kinase activity assay.
The target in assay [7] is Serine/threonine-protein kinase MARK1 (Homo sapiens) (UniProt Q9P0L2). Description: Inhibition of MARK1 (unknown origin) at 10 uM after 120 mins P33 radiolabeled kinase activity assay.
Assay [8] has as its target Proto-oncogene tyrosine-protein kinase ROS (Homo sapiens) (UniProt P08922). Description: Inhibition of ROS (unknown origin) at 10 uM after 120 mins P33 radiolabeled kinase activity assay.
Assay [9] has as its target Death-associated protein kinase 2 (Homo sapiens) (UniProt Q9UIK4). Description: Inhibition of DAPK2 (unknown origin) at 10 uM after 120 mins P33 radiolabeled kinase activity assay.
For assay [10], the target named is Serine/threonine-protein kinase N2 (Homo sapiens) (UniProt Q16513). Description: Inhibition of PKN2 (unknown origin) at 10 uM after 120 mins P33 radiolabeled kinase activity assay.
Serine/threonine-protein kinase N2 (Homo sapiens), sequence (Q16513 whole entry, looked up): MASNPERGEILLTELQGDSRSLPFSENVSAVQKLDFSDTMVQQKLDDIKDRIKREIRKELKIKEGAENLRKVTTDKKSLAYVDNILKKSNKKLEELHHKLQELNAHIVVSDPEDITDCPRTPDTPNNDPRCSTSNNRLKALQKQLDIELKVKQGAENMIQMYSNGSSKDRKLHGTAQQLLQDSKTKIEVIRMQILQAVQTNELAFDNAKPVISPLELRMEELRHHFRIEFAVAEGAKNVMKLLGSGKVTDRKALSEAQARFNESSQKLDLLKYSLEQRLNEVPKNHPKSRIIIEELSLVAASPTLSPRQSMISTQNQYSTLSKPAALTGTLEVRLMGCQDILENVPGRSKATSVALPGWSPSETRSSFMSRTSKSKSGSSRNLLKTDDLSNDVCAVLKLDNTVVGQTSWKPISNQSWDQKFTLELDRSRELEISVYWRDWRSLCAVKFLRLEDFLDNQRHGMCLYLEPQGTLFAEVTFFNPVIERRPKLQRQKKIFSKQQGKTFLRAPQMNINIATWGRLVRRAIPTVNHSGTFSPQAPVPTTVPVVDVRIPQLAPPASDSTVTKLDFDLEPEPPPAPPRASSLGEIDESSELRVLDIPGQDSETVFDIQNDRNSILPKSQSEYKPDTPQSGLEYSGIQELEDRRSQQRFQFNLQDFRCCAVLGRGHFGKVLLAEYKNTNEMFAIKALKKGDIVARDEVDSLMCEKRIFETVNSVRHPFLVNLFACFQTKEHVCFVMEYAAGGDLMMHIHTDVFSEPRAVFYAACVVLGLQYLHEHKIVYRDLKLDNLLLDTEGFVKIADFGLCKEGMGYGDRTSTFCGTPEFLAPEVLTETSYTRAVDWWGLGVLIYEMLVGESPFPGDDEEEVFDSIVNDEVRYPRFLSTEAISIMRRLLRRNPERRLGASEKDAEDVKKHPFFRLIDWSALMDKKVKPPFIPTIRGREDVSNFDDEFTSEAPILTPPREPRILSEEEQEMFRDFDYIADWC
Assay [11] addresses Activated CDC42 kinase 1 (Homo sapiens) (UniProt Q07912). The assay is described as follows: Inhibition of ACK1 (unknown origin) at 10 uM after 120 mins P33 radiolabeled kinase activity assay.
In assay [12] the target is T2, Serine/threonine-protein kinase Nek2 (Homo sapiens) (UniProt P51955).
T2 sequence (whole entry): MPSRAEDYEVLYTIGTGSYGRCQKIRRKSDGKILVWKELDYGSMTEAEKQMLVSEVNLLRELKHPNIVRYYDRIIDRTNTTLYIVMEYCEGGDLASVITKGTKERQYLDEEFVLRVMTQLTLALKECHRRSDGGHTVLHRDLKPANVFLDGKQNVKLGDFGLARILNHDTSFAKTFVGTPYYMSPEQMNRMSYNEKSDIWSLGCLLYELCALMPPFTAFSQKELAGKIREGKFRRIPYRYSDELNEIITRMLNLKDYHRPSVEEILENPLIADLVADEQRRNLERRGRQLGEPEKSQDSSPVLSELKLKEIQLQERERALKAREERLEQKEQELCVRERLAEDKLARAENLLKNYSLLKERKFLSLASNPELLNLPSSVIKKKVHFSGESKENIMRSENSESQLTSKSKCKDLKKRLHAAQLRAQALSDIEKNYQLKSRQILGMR
The assay is described as follows: Inhibition of NEK2 (unknown origin) at 10 uM after 120 mins P33 radiolabeled kinase activity assay.

The target of assay [13] is cAMP-dependent protein kinase (PKA) (Homo sapiens) (UniProt P22694+P17612+P22612). The assay is described as follows: Inhibition of PKA (unknown origin) at 10 uM after 120 mins P33 radiolabeled kinase activity assay. The format is protein assay.
Assay [14] deals with Tyrosine-protein kinase HCK (Homo sapiens) (UniProt P08631). Description: Inhibition of HCK (unknown origin) at 10 uM after 120 mins P33 radiolabeled kinase activity assay.
In assay [15] the target is Calcium/calmodulin-dependent protein kinase type 1G (Homo sapiens) (UniProt Q96NX5). Description: Inhibition of CAMK1gamma (unknown origin) at 10 uM after 120 mins P33 radiolabeled kinase activity assay.
Assay [16] addresses Leukocyte tyrosine kinase receptor (Homo sapiens) (UniProt P29376). Description: Inhibition of TYK1 (unknown origin) at 10 uM after 120 mins P33 radiolabeled kinase activity assay.
Assay [17] concerns the target T3, Serine/threonine-protein kinase BRSK1 (Homo sapiens) (UniProt Q8TDC3).
T3 sequence (whole entry): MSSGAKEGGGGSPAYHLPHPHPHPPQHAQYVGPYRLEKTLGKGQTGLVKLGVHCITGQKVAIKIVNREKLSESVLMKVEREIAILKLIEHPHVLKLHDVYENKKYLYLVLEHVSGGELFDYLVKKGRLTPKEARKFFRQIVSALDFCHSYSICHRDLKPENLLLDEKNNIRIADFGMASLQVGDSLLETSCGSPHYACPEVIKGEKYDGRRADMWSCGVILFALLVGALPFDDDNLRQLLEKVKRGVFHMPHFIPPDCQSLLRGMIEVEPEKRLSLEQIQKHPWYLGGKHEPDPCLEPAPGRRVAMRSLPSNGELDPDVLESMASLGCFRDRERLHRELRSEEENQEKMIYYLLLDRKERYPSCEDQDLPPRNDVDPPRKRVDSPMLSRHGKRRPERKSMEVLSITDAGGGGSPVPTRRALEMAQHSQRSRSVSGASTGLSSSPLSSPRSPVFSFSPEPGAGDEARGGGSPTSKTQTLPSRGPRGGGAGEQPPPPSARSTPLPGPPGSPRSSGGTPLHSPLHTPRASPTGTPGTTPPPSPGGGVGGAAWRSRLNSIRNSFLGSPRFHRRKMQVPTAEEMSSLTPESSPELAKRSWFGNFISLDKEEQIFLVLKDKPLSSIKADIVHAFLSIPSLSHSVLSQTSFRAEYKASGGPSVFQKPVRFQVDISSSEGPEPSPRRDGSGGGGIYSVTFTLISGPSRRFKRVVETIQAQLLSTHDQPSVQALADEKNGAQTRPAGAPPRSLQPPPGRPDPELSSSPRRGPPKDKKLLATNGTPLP
The assay is described as follows: Inhibition of BRSK1 (unknown origin) at 10 uM after 120 mins P33 radiolabeled kinase activity assay.

The target of assay [18] is Serine/threonine-protein kinase MARK2 (Homo sapiens) (UniProt Q7KZI7). Description: Inhibition of MARK2 (unknown origin) at 10 uM after 120 mins P33 radiolabeled kinase activity assay.
Serine/threonine-protein kinase MARK2 (Homo sapiens), sequence (Q7KZI7 whole entry): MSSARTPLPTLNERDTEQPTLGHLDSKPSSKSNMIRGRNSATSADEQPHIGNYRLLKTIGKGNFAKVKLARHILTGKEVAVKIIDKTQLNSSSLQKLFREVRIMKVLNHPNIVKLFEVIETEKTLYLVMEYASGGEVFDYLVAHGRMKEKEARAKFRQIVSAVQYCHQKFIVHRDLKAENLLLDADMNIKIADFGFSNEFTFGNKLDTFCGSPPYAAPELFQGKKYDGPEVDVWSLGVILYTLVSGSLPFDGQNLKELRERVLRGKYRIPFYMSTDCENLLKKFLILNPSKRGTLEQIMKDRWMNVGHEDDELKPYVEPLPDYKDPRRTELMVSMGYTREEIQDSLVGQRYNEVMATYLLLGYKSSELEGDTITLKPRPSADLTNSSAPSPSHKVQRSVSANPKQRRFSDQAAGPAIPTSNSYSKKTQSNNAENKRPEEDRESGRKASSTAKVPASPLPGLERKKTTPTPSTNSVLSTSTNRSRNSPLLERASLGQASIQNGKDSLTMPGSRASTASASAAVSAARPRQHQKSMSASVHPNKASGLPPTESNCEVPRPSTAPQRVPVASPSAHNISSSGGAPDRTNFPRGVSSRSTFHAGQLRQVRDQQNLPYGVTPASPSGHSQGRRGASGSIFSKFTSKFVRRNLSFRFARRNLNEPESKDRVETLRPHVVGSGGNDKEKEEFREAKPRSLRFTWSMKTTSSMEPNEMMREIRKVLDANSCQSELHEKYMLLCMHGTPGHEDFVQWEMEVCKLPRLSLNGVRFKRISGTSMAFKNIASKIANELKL

Activated CDC42 kinase 1 (Homo sapiens), sequence (Q07912 whole entry, looked up): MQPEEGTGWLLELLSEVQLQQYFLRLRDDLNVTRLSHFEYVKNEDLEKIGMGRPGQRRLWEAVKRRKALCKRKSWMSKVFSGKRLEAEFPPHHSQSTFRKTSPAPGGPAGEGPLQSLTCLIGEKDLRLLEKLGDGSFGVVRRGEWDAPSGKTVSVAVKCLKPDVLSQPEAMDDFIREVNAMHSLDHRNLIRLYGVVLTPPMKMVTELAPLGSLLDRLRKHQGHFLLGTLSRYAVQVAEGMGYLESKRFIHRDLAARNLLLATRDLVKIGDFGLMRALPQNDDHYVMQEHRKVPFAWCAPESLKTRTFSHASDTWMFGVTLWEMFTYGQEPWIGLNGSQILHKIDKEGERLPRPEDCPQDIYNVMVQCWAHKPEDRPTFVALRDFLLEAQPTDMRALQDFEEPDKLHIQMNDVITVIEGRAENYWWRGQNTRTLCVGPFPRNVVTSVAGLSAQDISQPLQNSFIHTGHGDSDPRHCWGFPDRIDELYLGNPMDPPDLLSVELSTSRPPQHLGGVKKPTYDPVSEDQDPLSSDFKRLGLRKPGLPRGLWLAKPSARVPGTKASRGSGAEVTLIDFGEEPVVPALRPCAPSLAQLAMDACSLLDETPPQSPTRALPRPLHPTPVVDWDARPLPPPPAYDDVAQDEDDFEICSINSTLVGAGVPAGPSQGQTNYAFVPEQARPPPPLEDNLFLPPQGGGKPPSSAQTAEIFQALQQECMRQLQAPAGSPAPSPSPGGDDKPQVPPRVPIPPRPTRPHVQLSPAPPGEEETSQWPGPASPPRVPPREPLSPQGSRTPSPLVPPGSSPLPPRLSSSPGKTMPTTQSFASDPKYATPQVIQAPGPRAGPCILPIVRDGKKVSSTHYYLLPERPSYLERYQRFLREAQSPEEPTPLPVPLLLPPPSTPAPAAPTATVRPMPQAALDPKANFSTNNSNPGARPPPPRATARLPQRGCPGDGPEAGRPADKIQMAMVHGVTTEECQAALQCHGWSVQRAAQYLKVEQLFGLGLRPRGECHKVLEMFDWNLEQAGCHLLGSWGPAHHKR
Ribosomal protein S6 kinase alpha-4 (Homo sapiens), sequence (O75676 whole entry, looked up): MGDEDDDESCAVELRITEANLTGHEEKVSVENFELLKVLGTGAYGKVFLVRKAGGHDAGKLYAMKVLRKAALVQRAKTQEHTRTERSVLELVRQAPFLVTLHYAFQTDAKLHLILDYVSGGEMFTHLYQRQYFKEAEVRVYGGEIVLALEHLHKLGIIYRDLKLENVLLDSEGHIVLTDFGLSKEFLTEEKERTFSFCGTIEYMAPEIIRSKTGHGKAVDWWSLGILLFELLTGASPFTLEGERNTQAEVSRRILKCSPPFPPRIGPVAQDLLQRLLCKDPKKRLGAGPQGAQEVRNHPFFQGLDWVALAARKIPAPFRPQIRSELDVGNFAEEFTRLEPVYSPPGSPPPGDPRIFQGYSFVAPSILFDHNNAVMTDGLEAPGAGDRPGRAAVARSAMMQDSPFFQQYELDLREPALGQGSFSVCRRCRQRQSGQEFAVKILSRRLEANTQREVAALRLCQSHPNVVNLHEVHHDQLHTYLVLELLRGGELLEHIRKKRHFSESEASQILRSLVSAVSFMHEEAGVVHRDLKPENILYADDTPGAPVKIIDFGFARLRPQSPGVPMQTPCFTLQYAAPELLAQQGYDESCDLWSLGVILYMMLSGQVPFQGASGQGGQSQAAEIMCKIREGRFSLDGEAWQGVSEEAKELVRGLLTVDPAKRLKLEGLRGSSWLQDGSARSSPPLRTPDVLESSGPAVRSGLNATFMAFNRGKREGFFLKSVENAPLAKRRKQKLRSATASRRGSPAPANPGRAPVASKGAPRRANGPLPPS
Death-associated protein kinase 2 (Homo sapiens), sequence (Q9UIK4 whole entry, looked up): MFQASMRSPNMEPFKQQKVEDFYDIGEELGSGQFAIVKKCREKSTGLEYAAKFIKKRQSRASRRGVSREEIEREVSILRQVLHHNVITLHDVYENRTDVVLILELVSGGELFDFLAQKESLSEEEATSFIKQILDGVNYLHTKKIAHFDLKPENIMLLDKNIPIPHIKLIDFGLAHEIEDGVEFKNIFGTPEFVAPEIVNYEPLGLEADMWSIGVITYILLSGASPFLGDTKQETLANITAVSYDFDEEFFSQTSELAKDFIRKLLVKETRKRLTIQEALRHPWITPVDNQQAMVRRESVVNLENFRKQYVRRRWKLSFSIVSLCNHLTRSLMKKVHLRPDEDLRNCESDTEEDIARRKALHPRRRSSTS

Usually inhibition stands for the change of the read-out against control, counted positive when it falls. For `CS(=O)(=O)c1cccc(Nc2nccc(-c3sc(N4CCOCC4)nc3-c3cccc(NS(=O)(=O)c4c(F)cccc4F)c3)n2)c1`, the inhibition was 19.5% in assay [1]; -2.43% in assay [2]; 14.1% in assay [3]; 66.9% in assay [4]; 18.2% in assay [5]; 98.9% in assay [6]. Besides, the inhibition turned out to be 10.3% in assay [7]; 63.8% in assay [8]; 1.67% in assay [9]; 26.8% in assay [10]; 96.5% in assay [11]; 20.5% in assay [12]. The inhibition in assay [13] was 6.72%; in assay [14] it was 99.2%; in assay [15], 66.6%; in assay [16], 7.78%; in assay [17], 49.8%; in [18], 10.9%.

Take `CC(C)(C)c1cc(NC(=O)Nc2ccc(Oc3ccncc3)cc2)no1`: the inhibition is 70.5% in [1]; -0.89% in assay [2]; 50.7% in assay [3]; 4.26% in assay [4]; 54.2% in assay [5]; 37.8% in [6]. For the same compound, the inhibition stood at 4.99% in assay [7]; 88.7% in [8]; 3.58% in assay [9]; 15.8% in [10]; 21.6% in assay [11]; 18.6% in [12]. The inhibition in assay [13] was 80.5%; in assay [14], 91.1%; in [15] it was 20.9%; in assay [16], 35.5%; in assay [17] it was 16.8%; in assay [18] it was 3.84%.

Consider `COCCNC(=O)c1ccc2c(c1)nc(-c1cnc(-c3ccc(Cl)cc3)[nH]1)n2CCOC`, for which the inhibition in assay [1] is 4.4%; in [2] it was -0.94%; in [3], 13.4%; in [4], 1.08%; in assay [5], 12.7%; in assay [6] it was 5.43%. Further, the inhibition in [7] is 3.28%; in assay [8], 27.9%; in assay [9], 6.92%; in [10] it was 28%; in assay [11], 16.4%; in assay [12], 2.45%. The inhibition in assay [13] was 7.76%; in [14], 70%; in assay [15], 8.82%; in assay [16], 4.59%; in assay [17], 18.7%; in assay [18], 2.7%.
